{"source": "paper PMC6254971", "about": "“Antimalarial Activity of Ultra-Short Peptides” (Molecules, 2009)", "key": {"[1]": {"tested_on": "P. falciparum", "parameters": "method as in 6 sources, ref 23 = [23]; PMID 16723585; doi:10.1128/AAC.00022-06; 23. Parikh S. Liu J. Sijwali P. Gut J. Goldberg D.E. Rosenthal P.J. Antimalarial effects of human immunodeficiency virus type 1 protease inhibitors differ from those of the aspartic protease inhibitor ||| ref 24 = [24]; PMID 11172676; doi:10.2174/0929867013373787; 24. Meinke P.T. Liberator P. Histone deacetylase: A target for antiproliferative and antiprotozoal agents Current Med. Chem. 2001 8 211 235 10.2174/0929867013373787 11172676 ||| ref 12 = [12]; PMID 16643062; doi:10.1021/np050549h; 12. Thongtan J. Saenboonrueng J. Rachtawee P. Isaka M. An antimalarial tetrapeptide from the entomopathogenic fungus Hirsutella sp. BCC 1528 J. Nat. Prod. 2006 69 713 714 10.1021/np050549h 16643062 ||| ref 25 = [25]; PMID 18305429; doi:10.3390/molecules13020432; 25. Sathe M. Thavaselvam D. Srivastava A.K. Kaushik M.P. Synthesis and antimalarial evaluation of cyclic β-amino acid-containing dipeptides Molecules 2008 13 432 443 10.3390/molecules13020432 18305429 ||| ref 30, 31 = [30]; PMID 1939639; doi:10.1172/JCI115456; 30. Rosenthal P.J. Wollish W.S. Palmer J.T. Rasnick D. Antimalarial effects of peptide inhibitors of a Plasmodium falciparum cysteine proteinase J. Clin. Invest. 1991 88 1467 1472 10.1172/JCI115456 19 || [31]; PMID 8807047; doi:10.1128/aac.40.7.1600; 31. Rosenthal P.J. Olson J.E. Lee G.K. Palmer J.T. Klaus J.L. Rasnick D. Antimalarial effects of vinyl sulfone cysteine proteinase inhibitors Antimicrob. Agents Chemother. 1996 40 1600 1603 8807047 10 ||| ...", "details": "cited from earlier work; for pIC50: read-out: IC50 against P. falciparum; for IC50 in vitro: maturation schizonts and total growth inhibition assays"}, "[2]": {"tested_on": "P. berghei", "parameters": "method as in 2 sources, ref 29 = [29]; PMID 8917558; doi:10.1073/pnas.93.23.13143; 29. Darkin-Rattray S.J. Gurnett A.M. Myers R.W. Dulski P.M. Crumley T.M. Allocco J.J. Cannova C. Meinke P.T. Colletti S.L. Bednarek M.A. Singh S.B. Goetz M.A. Dombrowski A.W. Polishook J.D. Schmatz D. ||| ref 25 = [25]; PMID 18305429; doi:10.3390/molecules13020432; 25. Sathe M. Thavaselvam D. Srivastava A.K. Kaushik M.P. Synthesis and antimalarial evaluation of cyclic β-amino acid-containing dipeptides Molecules 2008 13 432 443 10.3390/molecules13020432 18305429", "details": "cited from earlier work"}, "[3]": {"tested_on": "Plasmodium berghei schizonts (ANKA 2.34), chloroquine-sensitive", "assay": "microbe, parasite or virus in culture", "details": "for Chemosuppression of P. berghei schizont cultures (%): compound 200 μM, schizonts counted in 2,000 erythrocytes", "procedure": "Mature P. berghei schizonts were prepared as described by Thathy and Menard. […] Parasites were incubated for 16 h at 37 °C as described. Chloroquine (C6628 Sigma Chloroquine diphosphate salt solid, ≥98% purity) was used as positive control. Samples of 0.5 mL of each culture were taken to prepare smears and used to count numbers of schizonts in 2,000 erythrocytes. The IC50 values of each compound were determined using concentrations of 5, 50, 100, and 200 µM, according to Khalid et al., and by extrapolation from the concentration response curve. The IC50 value represents the drug concentration producing a 50% reduction in the number of P. berghei schizonts (compared to drug-free control cultures)."}, "[4]": {"tested_on": "trophozoite cysteine proteinase (TCP)", "parameters": "method as in PMID 1939639, PMID 8807047", "details": "cited from earlier work"}, "[5]": {"tested_on": "malarial infected mice", "details": "four days of subcutaneous administration; cited from earlier work"}, "[6]": {"details": "16 h at 37 °C, duplicate, averaged"}, "[7]": {"details": "read-out: IC50 (50% reduction in the number of P. berghei schizonts), 16 h at 37 °C, concentrations 5, 50, 100, 200 µM, extrapolation from concentration response curve, duplicate, averaged"}}, "note": "pIC50: −log10 of the molar value. Like-named read-outs stand apart in the source and are kept apart here. Non-standard residues stand in square brackets, D forms with d. Residues, ends and D or L forms follow the SMILES beside them. No end group written: not given here. *: point of attachment. Orn = NCCC[C@H](N)C(=O)O; Cbz = O=C(OCc1ccccc1)*; CH2F = FC*", "data": [{"molecule": "apicidin", "values": [{"measurement": "MIC against P. falciparum", "setting": "[1]", "result": 125, "unit": "ng/mL"}, {"measurement": "in vivo antimalarial activity against P. berghei", "setting": "[2]", "result": "potent in vivo antimalarial agent"}]}, {"molecule": "CC(C)[C@H](NC(=O)[C@@H](N)CCCCN)C(=O)N1CCC[C@H]1C(=O)N[C@@H](CCCN)C(=O)O", "note": "[Compound 7, Lys-Val-Pro-Orn] (H-KVP[Orn]-OH; N-terminus assumed)", "values": [{"measurement": "pIC50", "setting": "[3]; 16 h", "result": "< 3.70"}, {"measurement": "Chemosuppression of P. berghei schizont cultures (%)", "setting": "[3]; [6]", "result": 27.39, "unit": "%"}]}, {"molecule": "CC(C)(C)NC(=O)[C@@H]1C[C@@H]2CCCC[C@@H]2CN1C[C@@H](O)[C@H](Cc1ccccc1)NC(=O)[C@H](CC(N)=O)NC(=O)c1ccc2ccccc2n1", "note": "[saquinavir]", "values": [{"measurement": "inhibition of P. falciparum in vitro", "setting": "[1]", "result": "inhibit P. falciparum in vitro"}]}, {"molecule": "hirsutellic A acid", "values": [{"measurement": "pIC50", "setting": "[1]", "result": 5.10}]}, {"molecule": "CC[C@H](C)[C@H](N)C(=O)N[C@@H](CCCCN)C(=O)N[C@@H](Cc1ccccc1)C(=O)N[C@@H](CCCN)C(=O)O", "note": "[Compound 1, Ile-Lys-Phe-Orn] (H-IKF[Orn]-OH)", "values": [{"measurement": "pIC50", "setting": "[3]; 16 h", "result": 4.49}]}, {"molecule": "COC(=O)N[C@H](C(=O)N[C@@H](Cc1ccccc1)[C@@H](O)CN(Cc1ccc(-c2ccccn2)cc1)NC(=O)[C@@H](NC(=O)OC)C(C)(C)C)C(C)(C)C", "note": "[atazanavir]", "values": [{"measurement": "inhibition of P. falciparum in vitro", "setting": "[1]", "result": "inhibit P. falciparum in vitro"}]}, {"molecule": "F[Orn]F[Orn] [Compound 4]", "values": [{"measurement": "Chemosuppression of P. berghei schizont cultures (%)", "setting": "[3]; [6]", "result": 85.94, "unit": "%"}, {"measurement": "pIC50", "setting": "[3]; [7]", "result": 5.48}]}, {"molecule": "CCN(CC)CCCC(C)Nc1ccnc2cc(Cl)ccc12", "note": "(stereo not shown) [Chloroquine]", "values": [{"measurement": "pIC50", "setting": "[3]; Plasmodium berghei, 16 h, read-out: IC50 (50% reduction in the number of P. berghei schizonts)", "result": 7.22}, {"measurement": "Chemosuppression of P. berghei schizont cultures (%)", "setting": "[3]; [6]", "result": 100, "unit": "%"}]}, {"molecule": "CC(C)[C@H](NC(=O)[C@H](CCCN)NC(=O)[C@@H](N)Cc1ccccc1)C(=O)O", "note": "[Compound 9, Phe-Orn-Val] (H-Phe-[Orn]-Val-OH)", "values": [{"measurement": "pIC50", "setting": "[3]; 16 h", "result": 3.92}]}, {"molecule": "pepstatin A", "values": [{"measurement": "pIC50", "setting": "[1]", "result": 5.12}]}, {"molecule": "2-(2-tert-butoxycarbonylamino-4-methylpentanoyl-amino)-cyclooctanecarboxylic acid methyl ester", "values": [{"measurement": "IC50 in vitro", "setting": "[1]", "result": 3.87, "unit": "µg/mL"}]}, {"molecule": "apicidin A", "values": [{"measurement": "MIC against P. falciparum", "setting": "[1]", "result": 125, "unit": "ng/mL"}]}, {"molecule": "Cbz-Phe-Arg-CH2F [peptidylfluoromethyl ketone]", "values": [{"measurement": "inhibition of trophozoite cysteine proteinase", "setting": "[4]", "result": "very potent inhibitor"}]}, {"molecule": "HC-toxin I", "values": [{"measurement": "MIC against P. falciparum", "setting": "[1]", "result": 31, "unit": "ng/mL"}]}, {"molecule": "NCCCC[C@H](N)C(=O)N[C@@H](Cc1ccccc1)C(=O)N[C@@H](Cc1ccccc1)C(=O)N[C@@H](CCCN)C(=O)O", "note": "[Compound 5, Lys-Phe-Phe-Orn] (H-KFF[Orn]-OH)", "values": [{"measurement": "pIC50", "setting": "[3]; 16 h", "result": 5.59}]}, {"molecule": "CC(C)[C@H](N)C(=O)N[C@@H](CCCCN)C(=O)N[C@@H](Cc1ccccc1)C(=O)N[C@@H](CCCN)C(=O)O", "note": "[Compound 2, Val-Lys-Phe-Orn] (H-VKF[Orn]-OH)", "values": [{"measurement": "pIC50", "setting": "[3]; 16 h", "result": 5.00}]}, {"molecule": "2-(2-tert-butoxycarbonylamino-3-phenyl-propionylamino)-cyclooctanecarboxylic acid methyl ester", "values": [{"measurement": "IC50 in vitro", "setting": "[1]", "result": 3.64, "unit": "µg/mL"}, {"measurement": "in vivo antimalarial activity against P. berghei", "setting": "[2]", "result": "active in vivo"}]}, {"molecule": "CC(C)[C@H](NC(=O)[C@@H](N)CCCCN)C(=O)N[C@@H](Cc1ccccc1)C(=O)N1CCC[C@H]1C(=O)O", "note": "[Compound 8, Lys-Val-Phe-Pro] (H-KVFP-OH)", "values": [{"measurement": "pIC50", "setting": "[3]; [7]", "result": 4.29}]}, {"molecule": "morpholine urea (Mu)-Phe-HPh-CH2F", "values": [{"measurement": "cured malarial infected mice", "setting": "[5]", "result": 80, "unit": "%"}]}, {"molecule": "CC(C)[C@H](NC(=O)[C@H](CCCCN)NC(=O)[C@H](Cc1ccccc1)NC(=O)[C@@H](N)CCCN)C(=O)O", "note": "[Compound 6, Orn-Phe-Lys-Val] (H-[Orn]FKV-OH; N-terminus assumed)", "values": [{"measurement": "pIC50", "setting": "[3]; 16 h", "result": "< 3.70"}, {"measurement": "Chemosuppression of P. berghei schizont cultures (%)", "setting": "[3]; [6]", "result": 26.58, "unit": "%"}, {"measurement": "antimalarial activity in words (P. berghei schizont cultures)", "setting": "[3]; in vitro, 16 h", "result": "inactive"}]}, {"molecule": "NCCCC[C@H](N)C(=O)N[C@@H](CCCN)C(=O)N[C@@H](Cc1ccccc1)C(=O)N[C@@H](CCCN)C(=O)O", "note": "[Compound 3, Lys-Orn-Phe-Orn] (H-K[Orn]F[Orn]-OH)", "values": [{"measurement": "pIC50", "setting": "[3]; 16 h", "result": 4.87}]}]}
